Measured values from US20230263826A1, “Compositions and Methods for Treatment and Prevention of Type 1 Diabetes” (The UAB Research Foundation, priority 2021, published 2023).

Tested on: female NOD mice
Experiment: i.p. glucose tolerance test (GTT) in FKGK18-treated NOD mice
Type: in vivo, mouse
Conditions: for glucose tolerance vs PBS-T: glucose 2 g/kg i.p.
Procedure: FIGS. 1A-1M show the effects of temporal FKGK18 regimen on T1D incidence and islet phenotype, wherein female NOD mice were administered FKGK18 (20 mg/kg, 3 × weekly) or vehicle (PBS-T) starting at 4 or 8 weeks of age. FIGS. 1A and 1B show diabetes incidence; blood glucose was monitored weekly in the 4-week (FIG. 1A; n = 17 and 15 for PBS-T and FKGK18 groups, respectively) and 8-week (FIG. 1B; n = 15 each in the PBS-T and FKGK18 groups) regimen groups for up to 30 weeks. Two consecutive readings of ≥ 275 mg/dL were recorded as onset of T1D (^†P < 0.05). FIGS. 1C-1F show glucose tolerance test (GTT) results, wherein overnight fasted mice were administered glucose (2 g/kg, i.p.), glucose levels in blood from tail vein were monitored over a 2-hour period, and AUC were generated. FIGS. 1C and 1D show four-week group at 14 weeks of age; n = 5 each in the PBS-T and FKGK18 groups. FIGS. 1E and 1F show eight-week group at 25 weeks of age; n = 7 and 5 for PBS-T and FKGK18 groups, respectively. FIGS. 1G-1I show phenotype parameters in the 8-week regimen group. […] FIGS. 1H and 1I show β Cell mass (PBS-T, n = 15; FKGK18, n = 14) (FIG. 1H) and circulating insulin (n = 15 in each group) (FIG. 1I) were determined at sacrifice (PBS-T, 14-30 weeks of age; FKGK18, 16-36 weeks of age). FIGS. 1J and 1K show islet infiltration; paraffin sections (10 µm) of pancreas were prepared and stained with H&E. Percent infiltration for each islet was calculated as the value of noninfiltrated area subtracted from total islet area (% infiltrate = 100 × [(total area - noninfiltrated area)/(total area)]) using ImageJ software. […]
FIGS. 2A-2E show the effects of FKGK18-withdrawal regimen on T1D incidence and glucose tolerance, wherein female NOD mice were administered FKGK18 (20 mg/kg, 3 × weekly, n = 18) or vehicle (PBS-T, n = 17) starting at 10 days of age and until 14 weeks of age. […] FIGS. 2B and 2D show glucose tolerance test (GTT) results, assessed at 14 (FIG. 2B) and 25 (FIG. 2D) weeks of age (data are presented as mean ± SEM), as described in FIG. 1. […]

## O=C(CCCCc1ccc2ccccc2c1)C(F)(F)F [FKGK18]
FKGK18 from 10 days until 14 weeks of age, GTT at 14 and 25 weeks of age
  glucose tolerance, PBS-T vs FKGK18-withdrawn group: indistinguishable
FKGK18 started at 4 weeks of age, GTT at 14 weeks of age
  glucose tolerance vs PBS-T: No differences
FKGK18 started at 8 weeks of age, GTT at 25 weeks of age
  glucose tolerance vs PBS-T: No differences
